Data: patent US8741906B2 (priority 2011, dated 2014)
Like-named read-outs stand apart in the source and are kept apart here.

Assays:
human CB1 receptors = molecular target: T1, human CB1 receptors (Homo sapiens, UniProt P21554); assay: functional cAMP assay, human CB1; assay type: cell-based
T1 construct: expressed in transfected cells; host or cells: CHO cells
Procedure: (§1) CHO cells expressing human CB1 or CB2 receptors are seeded 17-24 hours prior to the experiment 50.000 cells per well in a black 96 well plate with flat clear bottom (Corning Costar #3904) in DMEM (Invitrogen No. 31331), 1×HT supplement, with 10% fetal calf serum and incubated at 5% CO2 and 37° C. in a humidified incubator. The growth medium was exchanged with Krebs Ringer Bicarbonate buffer with 1 mM IBMX and incubated at 30° C. for 30 min. Compounds were added to a final assay volume of 100 μl and incubated for 30 min at 30° C. Using the cAMP-Nano-TRF detection kit the assay (Roche Diagnostics) was stopped by the addition of 50 μl lysis reagent (Tris, NaCl, 1.5% Triton X100, 2.5% NP40, 10% NaN3) and 50 μl detection solutions (20 μM mAb Alexa700-cAMP 1:1, and 48 μM Ruthenium-2-AHA-cAMP) and shaken for 2 h at room temperature. The time-resolved energy transfer is measured by a TRF reader (Evotec Technologies GmbH), equipped with a ND:YAG laser as excitation source. The plate is measured twice with the excitation at 355 nm and at the emission with a delay of 100 ns and a gate of 100 ns, total exposure time 10 s at 730 (bandwidth 30 nm) or 645 nm (bandwidth 75 nm), respectively. The FRET signal is calculated as follows: FRET=T730-Alexa730-P(T645-B645) with P=Ru730-B730/Ru645-B645, where T730 is the test well measured at 730 nM, T645 is the test well measured at 645 nm, B730 and B645 are the buffer controls at 730 nm and 645 nm, respectively. cAMP content is determined from the function of a standard curve spanning from 10 μM to 0.13 nM cAMP.
(§2) EC50 values were determined using Activity Base analysis (ID Business Solution, Limited). The EC50 values for a wide range of cannabinoid agonists generated from this assay were in agreement with the values published in the scientific literature.

human CB2 receptors = molecular target: T2, human CB2 receptors (Homo sapiens, UniProt P34972); assay: functional cAMP assay, human CB2; assay type: cell-based; conditions: CHO cells expressing human CB2, cAMP; read-out: human CB2 EC50
T2 construct: expressed in transfected cells; host or cells: CHO cells
Procedure: as §1, §2

[1] = CHO cells expressing human CB1, cAMP, read-out: human CB1 EC50

T1 sequence (P21554 whole entry): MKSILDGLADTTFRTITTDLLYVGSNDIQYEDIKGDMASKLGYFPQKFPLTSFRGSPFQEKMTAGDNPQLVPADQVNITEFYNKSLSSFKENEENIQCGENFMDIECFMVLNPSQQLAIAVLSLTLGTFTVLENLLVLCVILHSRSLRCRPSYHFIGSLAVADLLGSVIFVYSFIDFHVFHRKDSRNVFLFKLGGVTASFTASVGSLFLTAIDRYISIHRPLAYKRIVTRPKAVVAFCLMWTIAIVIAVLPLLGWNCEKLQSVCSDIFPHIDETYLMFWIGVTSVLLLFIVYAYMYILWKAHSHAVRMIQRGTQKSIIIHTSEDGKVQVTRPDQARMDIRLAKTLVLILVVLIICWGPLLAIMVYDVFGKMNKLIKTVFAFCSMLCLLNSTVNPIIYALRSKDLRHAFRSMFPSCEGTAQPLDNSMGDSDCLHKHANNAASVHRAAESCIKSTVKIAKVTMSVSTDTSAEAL
T2 sequence (P34972 whole entry): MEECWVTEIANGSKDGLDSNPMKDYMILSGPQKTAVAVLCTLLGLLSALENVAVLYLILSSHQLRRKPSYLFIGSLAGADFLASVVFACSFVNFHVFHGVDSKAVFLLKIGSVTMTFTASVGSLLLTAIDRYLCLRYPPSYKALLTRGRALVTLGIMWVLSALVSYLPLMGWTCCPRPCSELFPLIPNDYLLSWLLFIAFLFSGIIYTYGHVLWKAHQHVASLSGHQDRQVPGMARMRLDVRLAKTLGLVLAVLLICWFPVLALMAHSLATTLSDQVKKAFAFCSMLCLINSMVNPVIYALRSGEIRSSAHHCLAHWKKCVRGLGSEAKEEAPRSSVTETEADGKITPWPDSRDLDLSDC

| Compound | EC50 (human CB1 receptors; [1]) [µM] | EC50 (human CB2 receptors) [µM] | EC50 (human CB1 receptors) [µM] |
| --- | --- | --- | --- |
| CC(C)(C)c1nc(N2C[C@@H](O)[C@H](O)C2)c2nnn(Cc3ccccc3Cl)c2n1 (relative stereo) [Example 55, 1-[5-tert-Butyl-3-(2-chloro-benzyl)-3H-[1,2,3]triazolo[4,5-c]pyrimidin-7-yl]-pyrrolidine-3,4-trans-diol] | > 10 | 0.0104 |  |
| CC(C)(C)c1nc(N2CCOCC2)c2nnn(Cc3ccccc3Cl)c2n1 [Example 1, 5-tert-butyl-3-(2-chlorobenzyl)-7-morpholin-4-yl-3H-[1,2,3]triazolo[4,5-d]pyrimidine] | 1.06 | 0.0006 |  |
| CC(C)(C)c1nc(N2CCCCC2)c2nnn(Cc3ccccc3Cl)c2n1 [Example 2, 5-tert-Butyl-3-(2-chloro-benzyl)-7-piperidin-1-yl-3H-[1,2,3]triazolo[4,5-d]pyrimidine] | 0.555 | 0.0016 |  |
| CC(C)(C)c1nc(N2CCC(F)(F)CC2)c2nnn(Cc3ccccc3Cl)c2n1 [Example 3, 5-tert-Butyl-3-(2-chloro-benzyl)-7-(4,4-difluoro-piperidin-1-yl)-3H-[1,2,3]triazolo[4,5-d]pyrimidine] | 0.16 | 0.0013 |  |
| CN1CCN(c2nc(C(C)(C)C)nc3c2nnn3Cc2ccccc2Cl)CC1 [Example 4, 5-tert-Butyl-3-(2-chloro-benzyl)-7-(4-methyl-piperazin-1-yl)-3H-[1,2,3]triazolo[4,5-d]pyrimidine] | 0.19 | 0.0014 |  |
| CC(C)(C)c1nc(N2CCCC2)c2nnn(Cc3ccccc3Cl)c2n1 [Example 5, 5-tert-Butyl-3-(2-chloro-benzyl)-7-pyrrolidin-1-yl-3H-[1,2,3]triazolo[4,5-d]pyrimidine] | 0.632 | 0.0003 |  |
| CC(C)(C)c1nc(N2CCC(F)(F)C2)c2nnn(Cc3ccccc3Cl)c2n1 [Example 6, 5-tert-Butyl-3-(2-chloro-benzyl)-7-(3,3-difluoro-pyrrolidin-1-yl)-3H-[1,2,3]triazolo[4,5-d]pyrimidine] | 0.165 | 0.0002 |  |
| CCNc1nc(C(C)(C)C)nc2c1nnn2Cc1ccccc1Cl [Example 7, [5-tert-Butyl-3-(2-chloro-benzyl)-3H-[1,2,3]triazolo[4,5-d]pyrimidin-7-yl]-ethyl-amine] | > 10 | 0.0112 |  |
| CC(C)(C)c1nc(NC2CCCCC2)c2nnn(Cc3ccccc3Cl)c2n1 [Example 8, [5-tert-Butyl-3-(2-chloro-benzyl)-3H-[1,2,3]triazolo[4,5-d]pyrimidin-7-yl]-cyclohexyl-amine] |  | 0.647 | > 10 |
| CCN(CC)c1nc(C(C)(C)C)nc2c1nnn2Cc1ccccc1Cl [Example 9, [5-tert-Butyl-3-(2-chloro-benzyl)-3H-[1,2,3]triazolo[4,5-d]pyrimidin-7-yl]-diethyl-amine] | > 10 | 0.0176 |  |
| CC(C)(C)c1nc(N2CC3(COC3)C2)c2nnn(Cc3ccccc3Cl)c2n1 [Example 10, 5-tert-Butyl-3-(2-chloro-benzyl)-7-(2-oxa-6-aza-spiro[3.3]hept-6-yl)-3H-[1,2,3]triazolo[4,5-d]pyrimidine] | 0.404 | 0.0024 |  |
| CC(C)(C)c1nc(N2CCC2)c2nnn(Cc3ccccc3Cl)c2n1 [Example 11, 7-Azetidin-1-yl-5-tert-butyl-3-(2-chloro-benzyl)-3H-[1,2,3]triazolo[4,5-d]pyrimidine] | 1.09 | 0.0032 |  |
| CC(C)(C)c1nc(N2CC(F)(F)C2)c2nnn(Cc3ccccc3Cl)c2n1 [Example 12, 5-tert-Butyl-3-(2-chloro-benzyl)-7-(3,3-difluoro-azetidin-1-yl)-3H-[1,2,3]triazolo[4,5-d]pyrimidine] | 1.11 | 0.0016 |  |
| CC(C)(C)c1nc(N2CC(O)C2)c2nnn(Cc3ccccc3Cl)c2n1 [Example 13] | > 10 | 0.0123 |  |
| CC1(O)CN(c2nc(C(C)(C)C)nc3c2nnn3Cc2ccccc2Cl)C1 [Example 14, 1-[5-tert-Butyl-3-(2-chloro-benzyl)-3H-[1,2,3]triazolo[4,5-d]pyrimidin-7-yl]-3-methyl-azetidin-3-ol] | 1.23 | 0.0021 |  |
| COC1CN(c2nc(C(C)(C)C)nc3c2nnn3Cc2ccccc2Cl)C1 [Example 15, 5-tert-Butyl-3-(2-chloro-benzyl)-7-(3-methoxy-azetidin-1-yl)-3H-[1,2,3]triazolo[4,5-d]pyrimidine] | 0.97 | 0.0032 |  |
| C[C@@H]1CN(c2nc(C(C)(C)C)nc3c2nnn3Cc2ccccc2Cl)C[C@H](C)O1 [Example 16, 5-tert-Butyl-3-(2-chloro-benzyl)-7-((2R,6S)-2,6-dimethyl-morpholin-4-yl)-3H-[1,2,3]triazolo[4,5-d]pyrimidine] |  | 0.286 | > 10 |
| CC1COCCN1c1nc(C(C)(C)C)nc2c1nnn2Cc1ccccc1Cl (centres unmarked) [Example 17, 5-tert-Butyl-3-(2-chloro-benzyl)-7-(3-methyl-morpholin-4-yl)-3H-[1,2,3]triazolo[4,5-d]pyrimidine] | > 10 | 0.0087 |  |
| CC(C)(C)c1nc(N2CCOC(CO)C2)c2nnn(Cc3ccccc3Cl)c2n1 (centres unmarked) [Example 18, {4-[5-tert-Butyl-3-(2-chloro-benzyl)-3H-[1,2,3]triazolo[4,5-d]pyrimidin-7-yl]-morpholin-2-yl}-methanol] | > 10 | 0.0466 |  |
| CC(C)(C)c1nc(N2CCSC2)c2nnn(Cc3ccccc3Cl)c2n1 [Example 19, 5-tert-Butyl-3-(2-chloro-benzyl)-7-thiazolidin-3-yl-3H-[1,2,3]triazolo[4,5-d]pyrimidine] | 0.131 | 0.0017 |  |
| CC(C)(C)c1nc(N2CCSCC2)c2nnn(Cc3ccccc3Cl)c2n1 [Example 20, 5-tert-Butyl-3-(2-chloro-benzyl)-7-thiomorpholin-4-yl-3H-[1,2,3]triazolo[4,5-d]pyrimidine] | 0.346 | 0.0017 |  |
| CC(C)(C)c1nc(N2CCS(=O)(=O)CC2)c2nnn(Cc3ccccc3Cl)c2n1 [Example 21, 5-tert-Butyl-3-(2-chloro-benzyl)-7-(1,1-dioxo-1λ6-thiomorpholin-4-yl)-3H-[1,2,3]triazolo[4,5-d]pyrimidine] | 0.601 | 0.0027 |  |
| CC(C)(C)c1nc(N2CCCOCC2)c2nnn(Cc3ccccc3Cl)c2n1 [Example 22, 5-tert-Butyl-3-(2-chloro-benzyl)-7-[1,4]oxazepan-4-yl-3H-[1,2,3]triazolo[4,5-d]pyrimidine] | 1.5 | 0.0024 |  |
| CC1(C)CN(c2nc(C(C)(C)C)nc3c2nnn3Cc2ccccc2Cl)CCO1 [Example 23, 5-tert-Butyl-3-(2-chloro-benzyl)-7-(2,2-dimethyl-morpholin-4-yl)-3H-[1,2,3]triazolo[4,5-d]pyrimidine] | > 10 | 0.0754 |  |
| CC(C)(C)c1nc(N2CCOCC2(C)C)c2nnn(Cc3ccccc3Cl)c2n1 [Example 24, 5-tert-Butyl-3-(2-chloro-benzyl)-7-(3,3-dimethyl-morpholin-4-yl)-3H-[1,2,3]triazolo[4,5-d]pyrimidine] | 0.476 | 0.003 |  |
| C[C@@H]1CC[C@@H](C)N1c1nc(C(C)(C)C)nc2c1nnn2Cc1ccccc1Cl [Example 25, 5-tert-Butyl-3-(2-chloro-benzyl)-7-((2R,5R)-2,5-dimethyl-pyrrolidin-1-yl)-3H-[1,2,3]triazolo[4,5-d]pyrimidine] | 0.919 | 0.031 |  |
| CC(C)(C)c1nc(N2CCC(F)(F)C2)c2nnn(C3COC3)c2n1 [Example 91, 5-tert-Butyl-7-(3,3-difluoro-pyrrolidin-1-yl)-3-oxetan-3-yl-3H-[1,2,3]triazolo[4,5-d]pyrimidine] |  | 0.0003 |  |
| CC(C)(C)c1nc(N2CCC(F)(F)C2)c2nnn(C(=O)c3ccccc3Cl)c2n1 [Example 92, [5-tert-Butyl-7-(3,3-difluoro-pyrrolidin-1-yl)-[1,2,3]triazolo[4,5-d]pyrimidin-3-yl]-(2-chloro-phenyl)-methanone] |  | 0.35 |  |
| CC(C)(C)c1nc(N2C[C@@H](O)C(F)(F)C2)c2nnn(Cc3ccccc3Cl)c2n1 [Example 95, (R)-1-[5-tert-Butyl-3-(2-chloro-benzyl)-3H-[1,2,3]triazolo[4,5-d]pyrimidin-7-yl]-4,4-difluoro-pyrrolidin-3-ol] |  | 0.0015 |  |
| CC(C)(C)c1nc(N2CCC(F)(F)C2)c2nnn(S(=O)(=O)c3ccccc3Cl)c2n1 [Example 107, 5-tert-Butyl-3-(2-chloro-benzenesulfonyl)-7-(3,3-difluoro-pyrrolidin-1-yl)-3H-[1,2,3]triazolo[4,5-d]pyrimidine] |  | 0.284 |  |
